Consider 1 compound from paper PMC10245146, “CNS4 causes subtype‐specific changes in agonist efficacy and reversal potential of permeant cations in NMDA receptors” (Pharmacology Research & Perspectives, 2023).

One assay has as its target T1, GluN1/2A NMDA receptors (UniProt P35439+Q12879).
T1 construct: expressed in transfected cells; host or cells: Xenopus oocytes (cRNA injection)
In words: TEVC agonist dose-response, Xenopus oocytes expressing 1/2A. Type of assay: cell-based. The text has this: (§1) NMDA receptor constructs: cDNA encoding the NMDA receptor1a subunit (GluN1a) was obtained from Dr. Nakanishi (Kyoto, Japan). cDNA encoding the GluN2B (pci_sepGluN2B), originally developed in the Malinow lab,[33] was purchased from Addgene (cat# 23998), Cambridge, MA. cDNA encoding the GluN2C and GluN2D were purchased from GenScript, New Jersey, USA. Mutated GluN1, 2A and 2B cDNA constructs capable of assembling as GluN1/2A/2B triheteromeric (1/2AB) receptors[34] were obtained from Dr. Paoletti (Laboratoire de Neurobiologie, CNRS). These constructs have been previously tested for 1/2AB receptor activity of GluN1/2A receptor‐selective potentiators.[35] […] Plasmids were linearized with NotI (GluN1a and all five GluN1 mutants) or Avrll (GluN2B), or BstB1 (GluN2C and GluN2D) and transcribed in vitro with T7 (GluN1a, GluN1/2A, GluN2B, GluN2C & GluN2D), and SP6 (GluN1 mutants) RNA polymerase using the mMessage mMachine transcription kits (Invitrogen by Thermo Fisher Scientific).
(§2) Stage IV frog oocytes were obtained from Xenopus‐I, (Ann Arbor, MI, USA). NMDA receptor subunit cRNAs were suspended in nuclease free sterile water. GluN1A, GluN2B, GluN2C, GluN2D and GluN1/2A/2B cRNAs were mixed in a ratio of 1:1–3. 50 nL of the final cRNA mixture was microinjected (40–70 ng total) into the oocyte cytoplasm. Oocytes were incubated in ND‐96 solution at 18°C prior to electrophysiological recordings (2–5 days).
(§3) Electrophysiological responses were measured using a standard two‐microelectrode voltage‐clamp workstation (Warner Instruments model OC‐725C) designed to provide a fast clamp of large cells. The recording buffer contained 116 mM NaCl, 2 mM KCl, 0.3 mM BaCl2, and 5 mM HEPES, pH 7.4. Response magnitude was determined in Xenopus oocytes expressing different NMDA receptor subunits (GluN1/2A, 1/2B, 1/2C, 1/2D, and 1/2A/2B) by the steady plateau response elicited by bath application of different agonist concentrations. […] All data points were obtained from the steady state currents unless stated otherwise. Dose–response relationships were fit to an appropriate curve‐fitting equation using GraphPad Prism‐7. Non‐linear regression was used to calculate EC50, IC50, and fold change or percentage maximal response. Curves were fit using the following equations as performed in the previous studies, [37]: Y=100/1+10^LogEC50−XorY=Bottom+Top−Bottom/1+10^LogEC50−X . Statistical significance was determined at the overall alpha level 0.05, using appropriate statistical methods as described in all figure captions. Technical and biological replicates are explicitly mentioned in each figure legend, as n = X (Y). X represents technical repeats (number of traces) and Y represents biological repeats (number of oocytes or HEK293T cells studied). […]

The target in a further assay is T2, GluN1/2C NMDA receptors (UniProt P35439+Q14957).
T2 construct: host or cells: Xenopus oocytes (cRNA injection)
T2 sequence (Q14957 20-1233, other chains not shown): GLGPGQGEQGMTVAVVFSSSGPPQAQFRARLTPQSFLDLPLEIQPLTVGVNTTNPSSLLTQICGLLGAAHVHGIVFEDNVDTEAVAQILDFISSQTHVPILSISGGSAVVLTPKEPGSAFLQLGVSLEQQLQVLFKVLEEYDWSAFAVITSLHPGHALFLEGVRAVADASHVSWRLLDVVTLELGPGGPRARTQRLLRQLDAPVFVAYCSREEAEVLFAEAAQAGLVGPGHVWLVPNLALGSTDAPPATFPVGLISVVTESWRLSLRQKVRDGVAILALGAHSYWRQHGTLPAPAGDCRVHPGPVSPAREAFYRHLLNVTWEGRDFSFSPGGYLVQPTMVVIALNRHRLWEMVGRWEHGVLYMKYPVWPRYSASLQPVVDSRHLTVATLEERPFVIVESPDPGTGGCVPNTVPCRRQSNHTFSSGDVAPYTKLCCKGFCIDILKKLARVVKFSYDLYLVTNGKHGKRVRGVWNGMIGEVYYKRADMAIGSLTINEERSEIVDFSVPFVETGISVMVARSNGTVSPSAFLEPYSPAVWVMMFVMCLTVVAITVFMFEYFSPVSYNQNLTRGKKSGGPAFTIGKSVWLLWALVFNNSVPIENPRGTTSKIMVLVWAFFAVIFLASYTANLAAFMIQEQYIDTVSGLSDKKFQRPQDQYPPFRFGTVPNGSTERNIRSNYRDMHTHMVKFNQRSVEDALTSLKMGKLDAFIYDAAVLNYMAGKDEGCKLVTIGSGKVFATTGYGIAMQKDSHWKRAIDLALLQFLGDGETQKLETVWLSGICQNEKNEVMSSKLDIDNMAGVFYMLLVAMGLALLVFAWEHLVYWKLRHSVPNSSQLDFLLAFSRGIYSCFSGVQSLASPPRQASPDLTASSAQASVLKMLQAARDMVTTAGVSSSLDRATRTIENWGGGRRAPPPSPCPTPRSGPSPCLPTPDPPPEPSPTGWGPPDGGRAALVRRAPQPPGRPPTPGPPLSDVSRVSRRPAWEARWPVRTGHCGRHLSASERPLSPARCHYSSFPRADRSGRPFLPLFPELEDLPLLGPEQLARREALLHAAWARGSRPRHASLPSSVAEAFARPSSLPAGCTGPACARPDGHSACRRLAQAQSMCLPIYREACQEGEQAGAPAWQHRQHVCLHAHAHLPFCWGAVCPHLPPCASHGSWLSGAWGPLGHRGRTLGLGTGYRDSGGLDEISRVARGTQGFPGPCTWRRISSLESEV
Kind of assay: TEVC agonist dose-response, Xenopus oocytes expressing 1/2C. Type of assay: cell-based.
Excerpt: as §1, §2, §3

Each structure is given as a SMILES string.

T1 sequence (Q12879 23-1464, other chains not shown): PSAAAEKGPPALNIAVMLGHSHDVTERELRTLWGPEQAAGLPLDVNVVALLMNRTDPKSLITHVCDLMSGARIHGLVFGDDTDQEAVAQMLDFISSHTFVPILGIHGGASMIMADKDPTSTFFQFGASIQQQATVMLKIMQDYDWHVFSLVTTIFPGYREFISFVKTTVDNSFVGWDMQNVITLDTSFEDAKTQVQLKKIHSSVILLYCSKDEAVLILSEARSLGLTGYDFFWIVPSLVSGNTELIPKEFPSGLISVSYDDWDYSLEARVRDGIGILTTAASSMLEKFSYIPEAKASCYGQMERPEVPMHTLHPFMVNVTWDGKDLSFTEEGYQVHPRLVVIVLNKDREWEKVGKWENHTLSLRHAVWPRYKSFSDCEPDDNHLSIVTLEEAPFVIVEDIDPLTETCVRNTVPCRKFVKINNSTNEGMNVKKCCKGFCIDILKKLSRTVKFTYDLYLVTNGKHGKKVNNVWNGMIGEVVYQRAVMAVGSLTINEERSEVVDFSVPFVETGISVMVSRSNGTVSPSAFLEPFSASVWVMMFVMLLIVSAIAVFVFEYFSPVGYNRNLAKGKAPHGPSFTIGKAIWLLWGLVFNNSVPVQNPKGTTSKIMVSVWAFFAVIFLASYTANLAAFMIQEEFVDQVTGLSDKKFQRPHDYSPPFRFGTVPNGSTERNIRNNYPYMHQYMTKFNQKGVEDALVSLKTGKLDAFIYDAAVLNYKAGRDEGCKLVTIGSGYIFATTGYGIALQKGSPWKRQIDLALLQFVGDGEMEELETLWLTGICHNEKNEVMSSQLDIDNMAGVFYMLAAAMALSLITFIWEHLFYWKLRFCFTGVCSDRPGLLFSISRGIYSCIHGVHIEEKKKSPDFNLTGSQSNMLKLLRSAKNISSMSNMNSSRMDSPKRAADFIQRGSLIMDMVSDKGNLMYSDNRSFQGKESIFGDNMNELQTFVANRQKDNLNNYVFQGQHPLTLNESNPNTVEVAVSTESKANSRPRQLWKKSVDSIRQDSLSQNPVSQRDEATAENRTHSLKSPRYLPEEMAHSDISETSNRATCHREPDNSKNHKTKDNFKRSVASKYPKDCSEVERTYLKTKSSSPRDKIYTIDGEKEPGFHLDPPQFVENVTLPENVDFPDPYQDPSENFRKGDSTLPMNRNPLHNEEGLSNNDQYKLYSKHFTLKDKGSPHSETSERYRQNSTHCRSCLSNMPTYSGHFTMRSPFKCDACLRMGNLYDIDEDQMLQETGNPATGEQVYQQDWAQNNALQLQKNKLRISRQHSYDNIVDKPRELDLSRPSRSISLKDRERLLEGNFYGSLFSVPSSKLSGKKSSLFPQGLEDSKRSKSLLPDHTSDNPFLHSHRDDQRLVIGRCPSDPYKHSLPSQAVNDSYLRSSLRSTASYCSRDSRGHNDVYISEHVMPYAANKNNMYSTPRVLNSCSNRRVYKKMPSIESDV

Turning to `O=C(NC(=S)N1CCCCC1c1cccnc1)c1ccc(F)cc1` (centres unmarked) [CNS4], the “100 μM glutamate induced relative current amplitude (glutamate efficacy)” value at GluN1/2A NMDA receptors (absence of glycine, presence of CNS4, n = 6(3)) is 0.04 ± 0.02 fold. For the same compound, the Glutamate efficacy at GluN1/2A NMDA receptors (in the presence of 30 μM glycine and 30 μM CNS4, n = 9 (3)) amounted to 297.8 ± 71.06 fold. In addition, the “Glycine efficacy: relative fold change in current at highest glycine concentration” value turned out to be 2.59 ± 0.36 fold at GluN1/2A NMDA receptors (with 30 μM CNS4, 100 μM glutamate constant, relative to 1 μM glycine, average ± SEM, p = .19) and 1.77 ± 0.20 fold on GluN1/2C NMDA receptors (with 30 μM CNS4, 100 μM glutamate constant, relative to 100 nM glycine, p = .0015). The “Glutamate efficacy: relative fold change in current at highest glutamate concentration” value at GluN1/2A NMDA receptors (with 30 μM CNS4, 100 μM glycine constant, relative to 1 μM glutamate, p = .2898) is reported as 2.95 ± 0.45 fold; at GluN1/2C NMDA receptors (with 30 μM CNS4, 100 μM glycine constant, relative to 100 nM glutamate, p = .0001), 3.93 ± 0.43 fold. The “Increase in glycine efficacy with vs without CNS4” value at GluN1/2C NMDA receptors (30 μM CNS4) is reported as 1.8 fold. In addition, on GluN1/2C NMDA receptors (30 μM CNS4), the “Reduction in glutamate efficacy with vs without CNS4” value amounted to 2.1 fold.
